Key:
[1] = system: C. albicans; assay: log drop in 6 hours in lens case with PureVision lens, C. albicans; assay type: cell-based, Candida albicans
Excerpt: (§1) Approximately three (3) mL of each solution was introduced into a lens case containing a PureVision® soft contact lens. Each contact lens was maintained in this solution at room temperature for about six (6) hours. The amidoamine used was ricinoleamidopropyl dimethylamine (RAPD), an amidoamine with an alcohol group. Table 1 below provides the ingredients of the contact lens care solutions tested as well as the activity of the various solutions against Candida and Fusarium after six hours.
(§2) To test the biocidal efficacy of a solution comprising the synergistic combination of a polyquaternary ammonium compound and an amidoamine having an alcohol group, four (4) solutions were prepared by blending together the components provided in Table 4. Approximately three (3) mL of three of the solutions was placed into a test tube with A. polyphaga. When utilized, the amidoamine was RAPD and the polyquaternary ammonium compound was polyquaternium-1. Table 4 below provides the ingredients of the contact lens care solutions tested as well as the activity of the solutions against Acanthamoeba polyphaga after six hours.

[2] = system: F. solani; assay: log drop in 6 hours in lens case with PureVision lens, F. solani; assay type: cell-based; settings: for log drop in 6 hours in lens case with PureVision lens, F. solani: sole antimicrobial, Table 1 solution, room temperature
Excerpt: as §1

[3] = system: S. marcescens; assay: log drop at contact time of 6 hours in test tube without lenses, S. marcescens; assay type: cell-based
Protocol: To test the biocidal efficacy of other solutions comprising the synergistic combination of a polyquaternary ammonium compound and an amidoamine having an alcohol group, three (3) solutions were prepared by blending together the components provided in Table 2. Approximately three (3) mL was placed into a test tube with S. marcescens. When utilized, the amidoamine was RAPD and the polyquaternary ammonium compound was polyquaternium-1. Table 2 below provides the ingredients of the contact lens care solutions tested as well as the activity of the solutions against S. marcescens after six hours. Further testing was performed to test the biocidal efficacy of other solutions comprising the synergistic combination of a polyquaternary ammonium compound and an amidoamine having an alcohol group. Approximately three (3) mL was placed into a test tube with S. marcescens. When utilized, the amidoamine was RAPD and the polyquaternary ammonium compound was polyquaternium-1. Table 3 below provides the ingredients of the contact lens care solutions tested as well as the activity of the solutions against S. marcescens after six hours.

[4] = system: S. marcescens; assay: log drop at contact time of 6 hours in lens case with PureVision lens, S. marcescens; assay type: cell-based; settings: Table 2 solution
Protocol: To test the biocidal efficacy of other solutions comprising the synergistic combination of a polyquaternary ammonium compound and an amidoamine having an alcohol group, three (3) solutions were prepared by blending together the components provided in Table 2. […] When utilized, the amidoamine was RAPD and the polyquaternary ammonium compound was polyquaternium-1. Table 2 below provides the ingredients of the contact lens care solutions tested as well as the activity of the solutions against S. marcescens after six hours.

[5] = system: Acanthamoeba polyphaga; assay: log drop in 6 hours in test tube, Acanthamoeba polyphaga; assay type: cell-based
Protocol: as §2, with “hours. To test the biocidal efficacy of other solutions comprising the synergistic combination of a polyquaternary ammonium compound and an amidoamine having an alcohol group, three (3) solutions were prepared by blending together the components provided in Table 5. Approximately three (3) mL of two of the solutions was placed into a test tube with A. polyphaga. When utilized, the amidoamine was RAPD and the polyquaternary ammonium compound was polyquaternium-1. Table 5 below provides the ingredients of the contact lens care solutions tested as well as the activity of the solutions against A. polyphaga after six hours.” for “hours.”

[6] = system: trophzoite and cyst-type Acanthamoeba; settings: stated as known; cited from earlier work
[7] = system: Fusarium; settings: stated as known; cited from earlier work
[8] = RAPD 0.0005 % w/w, no CPC, no PQ-1, Table 4 solution
[9] = RAPD as the sole antimicrobial agent, Table 1 solutions

## CCCCCC[C@@H](O)C/C=C\CCCCCCCC(=O)NCCCN(C)C [RAPD, ricinoleamidopropyl dimethylamine]
[1]; RAPD 0.0002 % w/w, sole antimicrobial, Table 1 solution, room temperature
  log drop in 6 hours in lens case with PureVision lens, C. albicans: 0.26 log
[1]; [8]
  log drop in 6 hours in lens case with PureVision lens, C. albicans: <0.28 log
[1]; RAPD 0.0005 % w/w, sole antimicrobial, Table 1 solution, room temperature
  log drop in 6 hours in lens case with PureVision lens, C. albicans: 0.33 log
[1]; RAPD 0.001 % w/w, sole antimicrobial, Table 1 solution, room temperature
  log drop in 6 hours in lens case with PureVision lens, C. albicans: 0.21 log
[1]; [9]
  biocidal activity against Candida (in words): very low biocidal activity
[2]; RAPD 0.0002 % w/w
  log drop in 6 hours in lens case with PureVision lens, F. solani: 0.48 log
[2]; RAPD 0.0005 % w/w
  log drop in 6 hours in lens case with PureVision lens, F. solani: 0.37 log
[2]; RAPD 0.001 % w/w
  log drop in 6 hours in lens case with PureVision lens, F. solani: 0.35 log
[2]; [9]
  biocidal activity against Fusarium (in words): very low biocidal activity
[3]; RAPD 0.0005 % w/w, no PQ-1, Table 3 solution
  log drop at contact time of 6 hours in test tube without lenses, S. marcescens: 0.44 log
[3]; RAPD 0.001 % w/w, no PQ-1, Table 3 solution
  log drop at contact time of 6 hours in test tube without lenses, S. marcescens: 1.51 log
[3]; RAPD 0.002 % w/w, no PQ-1, Table 2 solution
  log drop at contact time of 6 hours in test tube without lenses, S. marcescens: 1.77 log
[4]; RAPD 0.002 % w/w, no PQ-1
  log drop at contact time of 6 hours in lens case with PureVision lens, S. marcescens: 0.91 log
[5]; [8]
  log drop in 6 hours in test tube, Acanthamoeba polyphaga: 0.18 log
[5]; RAPD 0.002 % w/w, no PQ-1, no CPC, Table 5 solution
  log drop in 6 hours in test tube, A. polyphaga: 1.90 log

## CCCCC(CC)CNC(=N)NC(=N)NCCCCCCNC(=N)NC(=N)NCC(CC)CCCC (stereo not shown) [alexidine]
[6]
  biocidal activity against trophzoite and cyst-type Acanthamoeba (in words): very biocidal
[7]
  biocidal activity against Fusarium (in words): not very biocidal

## poly[(dimethyliminio)-2-butene-1,4-diylchloride (1:1)], a-[4-[tris(2-hydroxyethyl)ammonio]-2-buten-1-yl]-w-[tris(2-hydroxyethyl)ammonio]-chloride [PQ-1]
[3]; PQ-1 0.001 % w/w, no RAPD, citrate/borate solution of Tables 2 and 3
  log drop at contact time of 6 hours in test tube without lenses, S. marcescens: 1.53 log
[4]; PQ-1 0.001 % w/w, no RAPD
  log drop at contact time of 6 hours in lens case with PureVision lens, S. marcescens: 1.07 log

— patent publication US8163684B2, “Antimicrobials having polyquaternary ammoniums and alcohol-bearing amidoamines and methods for their use” (Abbott Medical Optics Inc., priority 2008, dated 2012)
